Assay results published in patent US9707267B2, “Beta-turn peptidomimetic cyclic compounds for treating dry eye” (Mimetogen Pharmaceuticals, Inc., priority 2008, dated 2017).

Columns and labels:
[1] = tested on: Scopolamine Induced Rat Dry Eye Model; assay: Scopolamine induced rat dry eye model, tear fluorescein clearance (Example 5); format: in vivo; settings: ± SD
Description: (§1) Dry eye was induced using scopolamine hydrobromide (Sigma-Aldrich, St. Louis, Mo.), which was continuously and systemically delivered to the animals via an osmotic pump (2ML4 Alzet®; CedarLane, Burlington, Ontario) filled with scopolamine and implanted subcutaneously in the mid dorsal area between the scapulae. Scopolamine was delivered for a twenty-eight day period at 12.5 mg/day, which translated to 30.0±1.5 mg/kg via osmotic pump.
(§2) Treatments for G2-G6 continued daily for seventeen days (up to an including day twenty-one). Thereafter, treatments were terminated but the study continued for another week. During treatment, each animal was anesthetized in an isoflurane chamber. Once asleep, each animal received a 5 μL topical instillation of test article into the lower conjunctival sac of both eyes using a calibrated micropipette. If a clinical endpoint was also being tested, the test article was topically instilled at the end of the testing.
[…] Tear fluorescein clearance was evaluated as described for humans (Alfonso, A. A., et al., “Correlation of Tear Fluorescein Clearance and Schirmer Test Scores with Ocular Irritation Symptoms,” Ophthalmology 106:803-810 (1999), which is incorporated herein by reference in its entirety) and modified for rats (Chen, W., et al., “Keratoconjunctivitis Sicca Modifies Epithelial Stem Cell Proliferation Kinetics in Conjunctiva,” Cornea 26:1101-1106 (2007), which is incorporated herein by reference in its entirety). Animals were lightly sedated with Isoflurane and two microliters of 1% sodium fluorescein (Sigma-Aldrich, St. Louis, Mo.) solution (in sterile saline) was applied to the lower conjunctival sac. The animals awoke within two minutes. After fifteen minutes, the animals were re-sedated and the fluorescein-stained tear fluid was collected with a phenol-red cotton thread (as described for Schirmer testing). The threads were immediately sealed in 1.5 mL polypropylene Eppendorf tubes shielded from light until fluorophotometric analysis. The volume of the collected tear fluid was determined by the length of cotton wetting in mm. After, 100 μl of phosphate-buffered saline (PBS) was added, the tubes were spun at 12,000 rpm for five minutes and the fluid transferred to a 96-well polystyrene microtiter plate (Corning Life Sciences #2592, Fisher Scientific, Nepean, Ontario). A standard well was prepared on each plate, which consisted of a phenol-red thread placed in 100 μl PBS containing 2 μl of 1% sodium fluorescein solution. Fluorescence was measured immediately using a fluorescence microplate reader (FLUOstar OPTIMA, BMG Labtech, Germany) after setting the gain to the standard well. The concentration of fluorescein in tears was calculated from the fluorescence units divided by the mm of cotton wetting (Fu/mm).

[2] = tested on: Scopolamine Induced Rat Dry Eye Model; assay: Scopolamine induced rat dry eye model, Schirmer test (Example 5); format: in vivo; settings: ± SD
Description: as §1, §2
Tear production was monitored using the Schirmer test on days 5, 7, 14, 20 and 29 post induction of dry eye. Tear production was measured with Zone-Quick standardized phenol-red threads (FCI Ophthalmics, Marshfield Hills, Mass.) on animals lightly sedated with Isoflurane. The threads were inserted in the lateral lower canthus and left in place for thirty seconds. The length of the stained moistened portion of the thread was measured in millimeters, using the scale provided with the threads to an accuracy of 1 mm.

[3] = 1.0% topical 1× daily Days 5-21, Day 20
[4] = 2.5% topical 1× daily Days 5-21, Day 7
[5] = 2.5% topical 1× daily Days 5-21, Day 14
[6] = 0.00053% topical 1× daily Days 5-21, Day 5 (test before first instillation)
[7] = 0.00053% topical 1× daily Days 5-21, Day 7
[8] = 0.00053% topical 1× daily Days 5-21, Day 14

Compound: NCCCC[C@@H]1NC(=O)[C@H](CCC(=O)O)NC(=O)c2cc([N+](=O)[O-])ccc2OCCC(C(=O)NCC(=O)O)NC1=O (stereo partly shown) [Compound D3]
- Tear Fluorescein Clearance ([1]; 0.4% group, Day 2, before treatment start (day 5)): 516 ± 305 FU/mm
- Tear Fluorescein Clearance ([1]; 0.4% group, Day −1, baseline, before treatment start (day 5)): 288 ± 247 FU/mm
- Tear Fluorescein Clearance ([1]; 0.4% topical 1× daily Days 5-21, Day 5 (test before first instillation)): 969 ± 732 FU/mm
- Tear Fluorescein Clearance ([1]; 0.4% topical 1× daily Days 5-21, Day 7): 296 ± 156 FU/mm
- Tear Fluorescein Clearance ([1]; 0.4% topical 1× daily Days 5-21, Day 14): 635 ± 599 FU/mm
- Tear Fluorescein Clearance ([1]; 0.4% topical 1× daily Days 5-21, Day 20): 667 ± 508 FU/mm
- Tear Fluorescein Clearance ([1]; 1.0% group, Day 2, before treatment start (day 5)): 880 ± 673 FU/mm
- Tear Fluorescein Clearance ([1]; 1.0% group, Day −1, baseline, before treatment start (day 5)): 575 ± 682 FU/mm
- Tear Fluorescein Clearance ([1]; 1.0% topical 1× daily Days 5-21, Day 5 (test before first instillation)): 550 ± 369 FU/mm
- Tear Fluorescein Clearance ([1]; 1.0% topical 1× daily Days 5-21, Day 7): 1098 ± 639 FU/mm
- Tear Fluorescein Clearance ([1]; 1.0% topical 1× daily Days 5-21, Day 14): 686 ± 306 FU/mm
- Tear Fluorescein Clearance [1, 3]: 1067 ± 773 FU/mm
- Tear Fluorescein Clearance ([1]; 2.5% group, Day 2, before treatment start (day 5)): 777 ± 592 FU/mm
- Tear Fluorescein Clearance ([1]; 2.5% group, Day −1, baseline, before treatment start (day 5)): 428 ± 312 FU/mm
- Tear Fluorescein Clearance ([1]; 2.5% topical 1× daily Days 5-21, Day 5 (test before first instillation)): 671 ± 344 FU/mm
- Tear Fluorescein Clearance [1, 4]: 561 ± 231 FU/mm
- Tear Fluorescein Clearance [1, 5]: 791 ± 235 FU/mm
- Tear Fluorescein Clearance ([1]; 2.5% topical 1× daily Days 5-21, Day 20): 673 ± 170 FU/mm
- Schirmer's Test [2, 3]: 6.8 ± 0.8 mm
- Schirmer's Test [2, 4]: 9.1 ± 1.9 mm
- Schirmer's Test [2, 5]: 9.4 ± 1.4 mm

Compound: NGF: nerve growth factor (recombinant human), positive control
- Tear Fluorescein Clearance ([1]; 0.00053% group, Day 2, before treatment start (day 5)): 933 ± 824 FU/mm
- Tear Fluorescein Clearance ([1]; 0.00053% group, Day −1, baseline, before treatment start (day 5)): 483 ± 562 FU/mm
- Tear Fluorescein Clearance [1, 6]: 804 ± 432 FU/mm
- Tear Fluorescein Clearance [1, 7]: 1080 ± 572 FU/mm
- Tear Fluorescein Clearance [1, 8]: 1097 ± 1112 FU/mm
- Tear Fluorescein Clearance ([1]; 0.00053% topical 1× daily Days 5-21, Day 20): 861 ± 414 FU/mm
- Schirmer's Test [2, 6]: 9.2 ± 2.5 mm
- Schirmer's Test [2, 7]: 7.8 ± 1.4 mm
- Schirmer's Test [2, 8]: 8.6 ± 2.1 mm
- Schirmer's Test ([2]; 0.00053% topical 1× daily Days 5-21, Day 29 (after treatment stopped)): 7.5 ± 2.5 mm
